Test results as given in patent US9156831B2, “Chemical compounds” (ASTRAZENECA AB, priority 2013, dated 2015).

Experiments:
[1] = target: ATR kinase (Homo sapiens (Human), UniProt Q13535); test: Phospho Chk1 (Ser345) in HT29 cells (ATR cell assay); format: cell-based; conditions: Test protocol f, one test replicate only
Description: ATR (Ataxia Telangiectasia+Rad3-related kinase) is a PI3-kinase-related kinase which phosphorylates multiple substrates on serine or threonine residues in response to DNA damage or replication blocks. Chk1, a downstream protein kinase of ATR, plays a key role in DNA damage checkpoint control. Activation of Chk1 involves phosphorylation of Ser317 and Ser345 (the latter regarded as the preferential target for phosphorylation/activation by ATR).
This was a cell based assay to measure inhibition of ATR kinase, by measuring a decrease in phosphorylation of Chk1 (Ser 345) in HT29 cells, following treatment with compound and the UV mimetic 4NQO (Sigma #N8141). HT29 cells (ECACC #85061109) were seeded into 384 well assay plates (Costar #3712) at a density of 6000 cells/well in 40 μl EMEM medium containing 1% L glutamine and 10% FBS and allowed to adhere overnight. The following morning compounds in 100% DMSO were added to assay plates by acoustic dispensing. After 1 hour incubation at 37° C. and 5% CO2, 40 nl of 3 mM 4NQO in 100% DMSO was added to all wells by acoustic dispensing, except minimum control wells which were left untreated with 4NQO to generate a null response control. Plates were returned to the incubator for a further 1 hour. Then cells were fixed by adding 20 μl of 3.7% formaldehyde in PBS solution and incubating for 20 mins at room temperature. Then 20 μl of 0.1% Triton X100 in PBS was added and incubated for 10 minutes at room temperature, to permeabalise cells. Then the plates were washed once with 50 μl/well PBS, using a Biotek EL405 plate washer.
Phospho-Chk1 Ser 345 antibody (Cell Signalling Technology #2348) was diluted 150 fold in PBS containing 0.05% polysorbate/Tween and 15 μl was added to each well and incubated over night at room temperature. The next morning plates were washed three times with 50 μl/well PBS, using a Biotek EL405 plate washer, and then 20 μl of secondary Ab solution, containing 500 fold diluted Alexa Fluor 488 Goat anti-rabbit IgG (Molecular Probes #A-11008) and 0.002 mg/ml Hoeschst dye (Molecular Probes #H-3570), in PBST, was added. After 2 hours incubation at room temperature, the plates were washed three times with 50 μl/well PBS, using a Biotek EL405 plate washer, and plates were then sealed with black plate seals until read. Plates were read using an ArrayScan VTI instrument, using an XF53 filter with 10× objective. A two laser set up was used to analyse nuclear staining with Hoeschst (405 nM) and secondary antibody staining of pChk1 (488 nM).

[2] = target: PI3K-α (Homo sapiens (Human), UniProt P42336, K111N); test: Phosphorylated AKT (Thr308) in BT474 cells (PI3K-α cell assay); format: cell-based; conditions: Test protocol c, mean of replicates
[3] = target: PI3K-β (Homo sapiens (Human), UniProt P42338); test: In vitro enzyme inhibition assay (Kinase Glo); format: biochemical; conditions: Test protocol a; mean of replicates
Protocol: (§1) The inhibition of PI3K-β, PI3K-α, PI3K-γ and PI3K-δ was evaluated in a Kinase Glo based enzyme activity assay using human recombinant enzymes. The assay platform indirectly measured the depletion of ATP after incubation with enzyme, PIP2 substrate, ATP and compound.
(§2) After completion of the enzyme reaction the remaining ATP was used in a secondary enzymatic reaction, where Luciferase converted beetle luciferin into oxyluciferin under the emission of light. A direct relationship existed between the luminescence measured and the ATP remaining in a completed kinase reaction. Therefore, the luminescence was inversely related to the kinase activity.
(§3) Compounds in 100% DMSO were added to assay plates by acoustic dispensing. PI3K enzyme was added in a Tris buffer (50 mM Tris pH7.4, 0.05% CHAPS, 2.1 mM DTT, and 10 mM magnesium chloride) and allowed to preincubate with compound for 20 minutes prior to addition of substrate solution containing PIP2 and ATP. The enzyme reaction was stopped after 80 minutes by the addition of Kinase Glo detection solution containing Lucferin and Luciferase (from Kinase Glo® Plus Luminecent Kinase Assay kit (Promega #V3772). Plates were left for 30 minutes at room temperature then read on a Pherastar Instrument with a standard Luminescence filter block. The final concentration of DMSO, ATP and PIP2 in the assay were, 1%, 8 μM, and 80 μM respectively.
(§4) IC50 values were calculated using a log curve fitting to a non-linear regression fit.

[4] = target: PI3K-δ (Homo sapiens (Human), UniProt O00329); test: In vitro enzyme inhibition assay (Kinase Glo); format: biochemical; conditions: Test protocol a; mean of replicates
Protocol: as §1, §2, §3, §4

[5] = target: PI3K-α (Homo sapiens (Human), UniProt P42336); test: In vitro enzyme inhibition assay (Kinase Glo); format: biochemical; conditions: Test protocol a; mean of replicates
Protocol: as §1, §2, §3, §4

[6] = tested on: MCF7 xenograft; test: Tumour growth inhibition, MCF7 xenograft model; format: in vivo, mouse; conditions: olaparib alone 100 mg/kg QD every day; FIG. 12
Protocol: MCF7 is an estrogen receptor positive breast tumour cell line carrying a mutation in the PIKC3CA gene (E545K). […] SCID mice (AZ UK) were transplanted subcutaneously (s.c.) with human breast adenocarcinoma cell line MCF7 (ICRF London) to determine anti-tumour activity of PI3 kinase inhibitors. Mice were implanted with a 0.5 mg 21 day oestrogen pellet (Innovative Research of America) 24 hours prior to cell implantation. 5×10^6 cells in 50% matrigel (BD Bioscience) were injected s.c. on the left flank of the animals.
(§5) Animals were randomised into groups of 10-15 when tumours reached a volume of ˜200-300 mm^3 and treatment commenced. Animals were dosed for 3-4 weeks by peroral route, with compound in a suitable vehicle at defined doses and schedules. Tumours were measured two-three times weekly by caliper and volume of tumours calculated using elliptical formula (pi/6×width×width×length).

[7] = tested on: BT474 xenograft; test: Tumour growth inhibition, BT474 xenograft model; format: in vivo, mouse
Protocol: BT474 is an estrogen receptor positive breast tumour cell lines with elevated Her2 expression and carries a mutation in the PIK3CA gene (K111N). Female Swiss athymic nude mice (swiss nu/nu-AZUK) were transplanted subcutaneously with human epithelial breast ductal carcinoma cell line BT474c (derived in AZ from BT474-ATCC HTB-20) tumours passaged in mice. Mice were implanted with 0.36 mg 60 day oestrogen pellet (Innovative Research of America) 24 hours prior to cell implantation. 5×10^6 cells in 50% matrigel (BD Bioscience) were injected s.c. on the left flank of the animals.
as §5

[8] = tested on: HCC70 xenograft; test: Tumour growth inhibition, HCC70 xenograft model; format: in vivo, mouse; conditions: AZD8186 alone 50 mg/kg BID every day; FIG. 13
Protocol: HCC70 is breast tumour cell line which is deficient in PTEN gene expression. Female Swiss athymic nude mice (swiss nu/nu—AZUK) were transplanted subcutaneously with the breast ductal epithelial tumour cell line HCC70 (ATCC—CRL2315) cells. 1×10^6 cells in 50% matrigel (BD Bioscience) were injected s.c. on the left flank of the animals.
as §5

PI3K-α (Homo sapiens (Human), UniProt P42336, K111N), sequence (P42336 whole entry K111N, looked up): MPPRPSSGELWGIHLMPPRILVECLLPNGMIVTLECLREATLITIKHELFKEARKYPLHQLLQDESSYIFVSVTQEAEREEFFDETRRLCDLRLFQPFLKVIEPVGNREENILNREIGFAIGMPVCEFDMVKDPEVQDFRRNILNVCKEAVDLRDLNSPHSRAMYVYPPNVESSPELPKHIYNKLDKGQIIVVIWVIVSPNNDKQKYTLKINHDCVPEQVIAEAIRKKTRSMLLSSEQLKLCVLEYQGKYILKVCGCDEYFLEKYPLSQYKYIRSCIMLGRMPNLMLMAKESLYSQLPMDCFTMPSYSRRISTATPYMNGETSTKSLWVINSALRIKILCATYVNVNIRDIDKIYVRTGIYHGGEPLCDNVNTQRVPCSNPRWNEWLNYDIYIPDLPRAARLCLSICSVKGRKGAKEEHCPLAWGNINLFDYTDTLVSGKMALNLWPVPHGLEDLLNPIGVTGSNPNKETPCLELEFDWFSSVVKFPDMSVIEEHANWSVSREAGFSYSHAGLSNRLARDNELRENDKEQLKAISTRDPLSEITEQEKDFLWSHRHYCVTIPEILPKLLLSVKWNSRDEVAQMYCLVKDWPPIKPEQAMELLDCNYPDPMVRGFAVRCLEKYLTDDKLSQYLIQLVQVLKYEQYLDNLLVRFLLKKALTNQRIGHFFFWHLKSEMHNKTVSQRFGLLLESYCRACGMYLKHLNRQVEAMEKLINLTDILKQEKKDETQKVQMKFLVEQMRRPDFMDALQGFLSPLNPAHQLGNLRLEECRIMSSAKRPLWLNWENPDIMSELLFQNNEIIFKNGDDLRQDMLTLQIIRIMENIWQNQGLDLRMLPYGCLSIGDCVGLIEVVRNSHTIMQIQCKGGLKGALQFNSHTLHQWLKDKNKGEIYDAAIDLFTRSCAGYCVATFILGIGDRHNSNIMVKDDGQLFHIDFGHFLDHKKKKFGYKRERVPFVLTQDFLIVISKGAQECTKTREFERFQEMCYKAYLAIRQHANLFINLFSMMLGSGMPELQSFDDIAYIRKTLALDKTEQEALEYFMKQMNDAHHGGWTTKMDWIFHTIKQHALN
PI3K-α (Homo sapiens (Human), UniProt P42336, K111N), sequence (P27986 whole entry partner, looked up): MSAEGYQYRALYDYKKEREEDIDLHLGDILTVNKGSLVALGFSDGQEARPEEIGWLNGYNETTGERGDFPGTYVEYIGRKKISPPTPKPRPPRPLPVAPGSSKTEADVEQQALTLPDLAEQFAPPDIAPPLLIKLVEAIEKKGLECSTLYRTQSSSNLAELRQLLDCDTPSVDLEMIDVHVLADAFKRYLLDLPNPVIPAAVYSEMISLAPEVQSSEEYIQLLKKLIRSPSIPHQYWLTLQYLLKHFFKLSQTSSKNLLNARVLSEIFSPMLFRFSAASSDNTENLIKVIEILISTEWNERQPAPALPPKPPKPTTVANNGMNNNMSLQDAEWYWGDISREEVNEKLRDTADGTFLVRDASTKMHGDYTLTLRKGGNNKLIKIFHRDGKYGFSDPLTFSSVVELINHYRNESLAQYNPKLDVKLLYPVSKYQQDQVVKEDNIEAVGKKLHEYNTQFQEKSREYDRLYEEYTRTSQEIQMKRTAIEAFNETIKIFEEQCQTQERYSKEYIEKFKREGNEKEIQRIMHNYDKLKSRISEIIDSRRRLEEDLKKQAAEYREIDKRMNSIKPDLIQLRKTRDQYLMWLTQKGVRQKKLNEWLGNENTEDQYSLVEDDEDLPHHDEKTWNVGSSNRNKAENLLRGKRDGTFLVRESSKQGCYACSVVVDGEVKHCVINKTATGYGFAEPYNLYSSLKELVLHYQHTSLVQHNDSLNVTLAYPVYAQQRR
PI3K-β, sequence (P42338 whole entry): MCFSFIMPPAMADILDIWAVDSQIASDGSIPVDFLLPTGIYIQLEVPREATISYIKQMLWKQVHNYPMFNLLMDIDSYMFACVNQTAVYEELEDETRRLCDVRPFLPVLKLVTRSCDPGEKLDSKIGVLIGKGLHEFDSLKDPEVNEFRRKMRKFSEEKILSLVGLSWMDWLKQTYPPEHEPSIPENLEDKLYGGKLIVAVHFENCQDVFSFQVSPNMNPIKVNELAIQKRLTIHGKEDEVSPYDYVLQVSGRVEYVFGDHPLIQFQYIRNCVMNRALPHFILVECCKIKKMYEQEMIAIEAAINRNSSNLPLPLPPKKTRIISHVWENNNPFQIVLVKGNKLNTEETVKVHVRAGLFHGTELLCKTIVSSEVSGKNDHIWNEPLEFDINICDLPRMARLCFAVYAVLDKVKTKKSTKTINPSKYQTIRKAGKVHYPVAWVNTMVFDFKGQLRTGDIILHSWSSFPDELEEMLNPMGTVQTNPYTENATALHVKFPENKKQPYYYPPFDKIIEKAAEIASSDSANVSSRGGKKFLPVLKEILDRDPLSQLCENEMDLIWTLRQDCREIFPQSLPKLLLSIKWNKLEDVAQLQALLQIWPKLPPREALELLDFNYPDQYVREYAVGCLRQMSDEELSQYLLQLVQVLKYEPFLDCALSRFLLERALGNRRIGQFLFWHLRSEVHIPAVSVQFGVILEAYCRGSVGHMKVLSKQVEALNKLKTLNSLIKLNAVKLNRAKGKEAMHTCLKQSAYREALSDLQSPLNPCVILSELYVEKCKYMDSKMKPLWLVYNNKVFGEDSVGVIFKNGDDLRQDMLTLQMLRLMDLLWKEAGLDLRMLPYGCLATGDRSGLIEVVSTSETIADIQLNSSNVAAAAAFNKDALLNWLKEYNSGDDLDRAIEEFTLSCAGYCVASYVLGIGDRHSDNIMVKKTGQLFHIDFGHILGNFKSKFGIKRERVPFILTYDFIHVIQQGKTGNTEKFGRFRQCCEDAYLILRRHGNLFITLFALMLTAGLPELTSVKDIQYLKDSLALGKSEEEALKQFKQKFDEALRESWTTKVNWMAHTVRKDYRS
PI3K-β, sequence (P27986 whole entry partner): as the sequence (P27986 whole entry partner, looked up) above
PI3K-δ, sequence (O00329 whole entry): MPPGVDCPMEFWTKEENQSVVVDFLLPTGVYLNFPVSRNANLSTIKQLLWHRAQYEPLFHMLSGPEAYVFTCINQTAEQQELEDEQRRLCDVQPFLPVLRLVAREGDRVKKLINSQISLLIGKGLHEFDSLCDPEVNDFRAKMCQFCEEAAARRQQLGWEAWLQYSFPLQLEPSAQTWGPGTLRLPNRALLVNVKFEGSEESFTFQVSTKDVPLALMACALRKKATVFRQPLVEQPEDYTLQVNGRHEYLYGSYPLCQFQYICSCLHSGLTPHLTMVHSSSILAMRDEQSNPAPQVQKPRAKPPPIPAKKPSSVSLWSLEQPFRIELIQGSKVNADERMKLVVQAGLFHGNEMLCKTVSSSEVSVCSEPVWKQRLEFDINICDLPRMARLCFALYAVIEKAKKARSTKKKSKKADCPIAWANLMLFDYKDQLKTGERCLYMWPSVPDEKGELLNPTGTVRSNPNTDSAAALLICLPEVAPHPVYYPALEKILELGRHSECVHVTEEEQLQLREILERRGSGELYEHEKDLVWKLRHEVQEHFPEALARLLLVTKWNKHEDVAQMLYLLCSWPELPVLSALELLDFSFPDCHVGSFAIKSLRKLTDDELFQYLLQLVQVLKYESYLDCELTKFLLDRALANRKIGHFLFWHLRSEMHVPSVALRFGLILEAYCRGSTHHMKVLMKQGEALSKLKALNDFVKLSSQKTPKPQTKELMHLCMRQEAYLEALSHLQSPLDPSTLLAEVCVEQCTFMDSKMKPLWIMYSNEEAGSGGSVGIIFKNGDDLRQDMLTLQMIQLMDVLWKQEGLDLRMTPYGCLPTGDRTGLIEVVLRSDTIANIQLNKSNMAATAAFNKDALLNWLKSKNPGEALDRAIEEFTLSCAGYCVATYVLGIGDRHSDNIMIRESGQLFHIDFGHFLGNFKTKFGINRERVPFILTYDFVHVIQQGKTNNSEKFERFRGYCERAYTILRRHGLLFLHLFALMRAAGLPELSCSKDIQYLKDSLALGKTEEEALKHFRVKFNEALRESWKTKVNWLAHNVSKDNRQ
PI3K-δ, sequence (P27986 whole entry partner): as the sequence (P27986 whole entry partner, looked up) above
PI3K-α (Homo sapiens (Human), UniProt P42336), sequence (P42336 whole entry, looked up): as the sequence (P42336 whole entry K111N, looked up) above, with N111K counted along it
PI3K-α (Homo sapiens (Human), UniProt P42336), sequence (P27986 whole entry partner, looked up): as the sequence (P27986 whole entry partner, looked up) above

Row | IC50 [1] [µM] | IC50 [2] [nM] | IC50 [3] [µM] | IC50 [4] [nM] | SMILES | also measured
1 | > 30 | 420 | 6.26 | 14 | Cn1nc(C2CCN(C(=O)C(C)(C)O)CC2)nc1-c1cnc(N)c(-c2nnc(C(C)(C)C)o2)n1 [Example 7, 1-[4-[5-[5-amino-6-(5-tert-butyl-1,3,4-oxadiazol-2-yl)pyrazin-2-yl]-1-methyl-1,2,4-triazol-3-yl]-1-piperidyl]-2-hydroxy-2-methyl-propan-1-one] | IC50 [5]: 37 nM
2 |  |  |  |  | O=C(c1cc(Cc2n[nH]c(=O)c3ccccc23)ccc1F)N1CCN(C(=O)C2CC2)CC1 [olaparib, 4-[3-(4-cyclopropanecarbonyl-piperazine-1-carbonyl)-4-fluoro-benzyl]-2H-phthalazin-1-one, reference compound] | tumour growth [6]: minimal effect on tumour growth; tumour growth ([7]; olaparib alone 100 mg/kg QD every day, FIG. 11): no significant effect on tumour growth
3 | > 30 |  | 3.42 | < 12 | C[C@H](CO)C(=O)N1CCC(c2nc(-c3cnc(N)c(-c4nnc(C(C)(C)C)o4)n3)n(C)n2)CC1 [Example 6, (2R)-1-[4-[5-[5-amino-6-(5-tert-butyl-1,3,4-oxadiazol-2-yl)pyrazin-2-yl]-1-methyl-1,2,4-triazol-3-yl]-1-piperidyl]-3-hydroxy-2-methyl-propan-1-one] | 
4 |  |  |  |  | NC1(C(=O)N[C@@H](CCO)c2ccc(Cl)cc2)CCN(c2ncnc3[nH]ccc23)CC1 [AZD5363, (S)-4-amino-N-(1-(4-chlorophenyl)-3-hydroxypropyl)-1-(7H-pyrrolo[2,3-d]pyrimidin-4-yl)piperidine-4-carboxamide, reference compound] | tumour growth ([7]; AZD5363 alone 100 mg/kg BID, 2 days on/5 days off, vs vehicle, FIG. 10): partially inhibited tumour growth; tumour growth ([7]; AZD5363 alone 170 mg/kg BID, 2 days on/5 days off, vs vehicle, FIG. 9): partially inhibited tumour growth
5 |  |  |  |  | C[C@@H](Nc1cc(F)cc(F)c1)c1cc(C(=O)N(C)C)cc2c(=O)cc(N3CCOCC3)oc12 [AZD8186, 8-((1R)-1-(3,5-difluorophenylamino)ethyl)-N,N-dimethyl-2-morpholino-4-oxo-4H-chromene-6-carboxamide, reference compound] | tumour growth [8]: partially inhibited tumour growth
6 |  |  | 0.64 | < 10 | CCn1nc(C2CCN(C(=O)CC(=O)O)CC2)nc1-c1cnc(N)c(-c2nnc(C(C)(C)C)o2)n1 [Example 9, 3-[4-[5-[5-amino-6-(5-tert-butyl-1,3,4-oxadiazol-2-yl)pyrazin-2-yl]-1-ethyl-1,2,4-triazol-3-yl]-1-piperidyl]-3-oxo-propanoic acid] | 
7 | > 30 |  | 3.31 | 12 | C[C@H](O)CC(=O)N1CCC(c2nc(-c3cnc(N)c(-c4nnc(C(C)(C)C)o4)n3)n(C)n2)CC1 [Example 5, (3S)-1-[4-[5-[5-amino-6-(5-tert-butyl-1,3,4-oxadiazol-2-yl)pyrazin-2-yl]-1-methyl-1,2,4-triazol-3-yl]-1-piperidyl]-3-hydroxy-butan-1-one] | 
8 |  | 85 |  |  | CCn1nc(C2CCN(C(=O)[C@@H](O)CO)CC2)nc1-c1cnc(N)c(-c2nnc(C(C)(C)C)o2)n1 [Example 10, (2S)-1-[4-[5-[5-amino-6-(5-tert-butyl-1,3,4-oxadiazol-2-yl)pyrazin-2-yl]-1-ethyl-1,2,4-triazol-3-yl]-1-piperidyl]-2,3-dihydroxy-propan-1-one] | 
9 |  | 110 |  |  | CCn1nc(C2CCN(C(=O)[C@H](O)CO)CC2)nc1-c1cnc(N)c(-c2nnc(C(C)(C)C)o2)n1 [Example 11, (2R)-1-[4-[5-[5-amino-6-(5-tert-butyl-1,3,4-oxadiazol-2-yl)pyrazin-2-yl]-1-ethyl-1,2,4-triazol-3-yl]-1-piperidyl]-2,3-dihydroxy-propan-1-one] | 
10 | > 30 | 590 | 1.52 | 12 | Cn1nc(C2CCN(C(=O)CC(=O)O)CC2)nc1-c1cnc(N)c(-c2nnc(C(C)(C)C)o2)n1 [Example 8, 3-[4-[5-[5-amino-6-(5-tert-butyl-1,3,4-oxadiazol-2-yl)pyrazin-2-yl]-1-methyl-1,2,4-triazol-3-yl]-1-piperidyl]-3-oxo-propanoic acid] | IC50 [5]: 24 nM
11 | > 30 |  | 2.91 | < 12 | C[C@@H](O)CC(=O)N1CCC(c2nc(-c3cnc(N)c(-c4nnc(C(C)(C)C)o4)n3)n(C)n2)CC1 [Example 4, (3R)-1-[4-[5-[5-amino-6-(5-tert-butyl-1,3,4-oxadiazol-2-yl)pyrazin-2-yl]-1-methyl-1,2,4-triazol-3-yl]-1-piperidyl]-3-hydroxy-butan-1-one] | 
